These results are taken from article PMC9001643, “Conservation of the unusual dimeric JmjC fold of JMJD7 from Drosophila melanogaster to humans” (Scientific Reports, 2022).

The target in one assay is T1, dmJMJD7 (Drosophila melanogaster, UniProt Q9VU77).
T1 construct: gene JMJD7; full-length dmJMJD7, aa 1–316, N-terminally His6-tagged
T1 sequence (Q9VU77 whole entry, the tested form may be a part): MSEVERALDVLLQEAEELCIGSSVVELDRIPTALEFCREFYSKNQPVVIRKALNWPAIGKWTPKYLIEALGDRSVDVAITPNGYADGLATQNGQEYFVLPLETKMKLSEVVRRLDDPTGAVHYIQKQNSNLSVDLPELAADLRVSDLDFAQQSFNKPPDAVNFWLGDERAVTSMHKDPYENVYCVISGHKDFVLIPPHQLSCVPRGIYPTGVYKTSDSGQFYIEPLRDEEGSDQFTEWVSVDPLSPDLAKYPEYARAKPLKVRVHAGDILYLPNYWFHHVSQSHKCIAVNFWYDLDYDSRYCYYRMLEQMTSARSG
The assay is described as follows: crystal structure. In kind it is binding.
For `O=C(O)CCC(=O)C(=O)O` [2OG, 2-oxoglutarate], the crystal structure result is on record as “crystals of His6-dmJMJD7.Mn complexed with its co-substrate 2OG or co-product succinate”.

In the case of `O=C(O)C(=O)N[C@H](Cc1ccccc1)C(=O)O` [NOFD, N-oxalyl-D-phenylalanine], the crystal structure result was “dmJMJD7.N-oxalyl-D-phenylalanine (PDB: 7YXL)”. As to `O=C(O)CCC(=O)O` [succinate], the crystal structure result is given as “dmJMJD7.succinate (PDB: 7YXH)”.

A further assay concerns the target T1, dmJMJD7. The assay is described as follows: crystal structure; SPE-MS inhibition assay with DRG1 peptide. In kind it is biochemical.
The IC50 is the concentration needed to halve the response being measured. Read a high IC50 as weaker potency. `O=C(O)c1ccnc(C(=O)O)c1` [2,4-PDCA, pyridine-2,4-dicarboxylate] showed an IC50 of 1340 nM. Still for that read-out and setting: under `C[C@@H](NC(=O)C(=O)O)C(=O)O` [NODA, N-oxalyl-D-alanine] stands 4140 nM; under `O=C(O)CNC(=O)C(=O)O` [NOG, N-oxalylglycine], 300 nM.
